We go through 3 compounds from ChEMBL document CHEMBL5726559, “Aryl, heteroaryl, and heterocyclic compounds for treatment of complement mediated disorders” (2017).

Chain of Complement factor D (P00746 whole entry): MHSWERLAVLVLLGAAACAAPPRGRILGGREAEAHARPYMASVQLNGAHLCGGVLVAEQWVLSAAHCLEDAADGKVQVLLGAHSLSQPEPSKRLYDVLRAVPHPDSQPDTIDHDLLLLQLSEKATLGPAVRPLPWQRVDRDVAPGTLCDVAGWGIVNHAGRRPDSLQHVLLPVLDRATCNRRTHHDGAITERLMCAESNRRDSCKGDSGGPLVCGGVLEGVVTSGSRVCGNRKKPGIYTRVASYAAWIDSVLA

This assay has as its target Complement factor D (Homo sapiens, UniProt P00746). Put plainly: Factor D Assay: Human factor D (purified from human serum, Complement Technology, Inc.) at 80 nM final concentration is incubated with test compound at various concentrations for 5 minutes at room temperature in 50 mM Tris, 1M NaCl, pH 7.5. A synthetic substrate Z-L-Lys-SBzl and DTNB (Ellman's reagent) are added to final concentrations of 100 μM each. The increase in color is recorded at OD405 nm in a microplate in kinetic mode over 30 minutes with 30 second time points in a spectrofluorimeter. IC50 values are calculated by non-linear regression from the percentage of inhibition of complement factor D activity as a function of test compound concentration.
On to `NC(=O)c1nn(CC(=O)N2C[C@H](F)C[C@H]2C(=O)Nc2cccc(Cl)n2)c2ccc(-c3ccnnc3)cc12`, for which the IC50 was below 1000 nM.

For the compound `CC(=O)c1cn(CC(=O)N2C[C@H](F)C[C@H]2C(=O)Nc2cccc(Br)n2)c2ccc(-c3ccc(C)nn3)cc12`, the concentration for half-maximal inhibition (IC50) is below 1000 nM.

With `CC(=O)c1cn(CC(=O)N2C[C@H](F)C[C@H]2C(=O)Nc2cccc(Cl)n2)c2ccc(-c3ccnnc3)cc12`, the half-inhibitory concentration (IC50) was below 1000 nM.
